Measurements reported in patent US20110129871A1, “CULTURE MEDIUM ENABLING STAPHYLOCOCCUS AUREUS TO BE DIFFERENTIATED FROM COAGULASE-NEGATIVE STAPHYLOCOCCI” (priority 2008, published 2011).

How the values were obtained:
PIPLC = target: T1, PIPLC (Staphylococcus aureus, UniProt P45723); assay: PIPLC activity of Staphylococcus aureus strains in microplates with two fluorogenic PIPLC substrates; format: cell-based; set-up: key to PIPLC activity: +: strains permitting the production of fluorescence at least twice that of the background noise; −: a signal emitted by the medium that is less than the background noise; conditions: microplate, 24 hours at 37° C.; for number of strains that display PIPLC activity in the presence of the substrate: among the nineteen strains of Staphylococcus aureus ATCC tested; for PIPLC activity: substrate 0.4 g/l (4-methylumbelliferyl) or 0.2 g/l (3-chloro) in medium derived from OAA
T1 construct: endogenous in cells; host or cells: 19 Staphylococcus aureus ATCC strains (e.g. ATCC 9144, ATCC 49775) growing in culture medium
Procedure: 19 strains of Staphylococcus aureus ATCC are tested for their PIPLC activity in microplates. The tests are performed with two different fluorogenic substrates of PIPLC: 4-methylumbelliferyl-myo-inositol-1-phosphate and 3-chloro-7-hydroxy-4-methylcoumarin myo-inositol-phosphate, added at different concentrations to the constituents of the medium derived from the OAA medium described in example 1.
The strains tested, at an initial concentration of 10^8 (CFU)/ml, are diluted in a tryptone salt broth, so as to obtain a final concentration at 10^3 CFU/ml.
10 μl of this bacterial suspension is added to 200 μl of culture medium. Each strain was incubated for 24 hours at 37° C. with each of the media in the microplate reader marketed by the company TECAN under the name GENios™.
The + signs correspond to the strains permitting the production of fluorescence at least twice that of the background noise, The − signs correspond to a signal emitted by the medium that is less than the background noise.

PC-PLC (lecithinase) = conditions: strains ATCC 33592 and ATCC 700699, 10 CFU per well; 0.4 g/l substrate, pH 7.2, 37° C., 72h, versus uninoculated control medium (FIG. 1)
Procedure: The dynamics of the PC-PLC activity of two strains of Staphylococcus aureus ATCC 33592 and ATCC 700699 was evaluated in microplates in the presence of the medium given below. Reading of the appearance of fluorescence in each of the various wells of the microplate was then carried out in kinetic conditions.
The medium used is of the following composition, pH 7.2:
10 CFU of Staphylococcus aureus ATCC 33592 and ATCC 700699 were inoculated in the wells of the microplate in the presence of the medium described above. The microplate was then incubated at 37° C. in a TECAN reader to evaluate the PC-PLC activity of the two strains of Staphylococcus aureus in the form of the kinetics of hydrolysis of the 4MU-CP substrate, i.e. appearance of fluorescence.
Measurement of the appearance of fluorescence following hydrolysis of the 4MU-CP substrate was carried out over an incubation time of 72h for the two strains of Staphylococcus aureus tested (STA ATCC 33592 and STA ATCC 700699) versus the uninoculated control medium (baseline).

T1 sequence (P45723 27-312): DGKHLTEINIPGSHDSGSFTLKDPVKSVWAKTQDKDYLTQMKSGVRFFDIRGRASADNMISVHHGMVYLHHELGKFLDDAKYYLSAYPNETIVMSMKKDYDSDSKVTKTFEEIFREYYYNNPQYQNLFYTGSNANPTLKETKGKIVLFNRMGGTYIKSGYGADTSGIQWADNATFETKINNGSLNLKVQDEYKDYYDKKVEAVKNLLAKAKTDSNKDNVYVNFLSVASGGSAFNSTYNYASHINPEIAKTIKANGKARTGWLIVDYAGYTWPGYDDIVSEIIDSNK

## Cc1c(Cl)c(=O)oc2cc(OP(=O)([O-])OC3C(O)C(O)C(O)C(O)C3O)ccc12.[Li+] (centres unmarked) [3-Chloro-7-hydroxy-4-methylcoumarin myo-inositol-1-phosphate]
PIPLC
  number of strains that display PIPLC activity in the presence of the substrate: 18
PIPLC; strain ATCC 6538
  PIPLC activity: + (strains permitting the production of fluorescence at least twice that of the background noise)
PIPLC; strain ATCC 9144
  PIPLC activity: + (strains permitting the production of fluorescence at least twice that of the background noise)
PIPLC; strain ATCC 12598
  PIPLC activity: + (strains permitting the production of fluorescence at least twice that of the background noise)
PIPLC; strain ATCC 13150
  PIPLC activity: + (strains permitting the production of fluorescence at least twice that of the background noise)
PIPLC; strain ATCC 29213
  PIPLC activity: + (strains permitting the production of fluorescence at least twice that of the background noise)
PIPLC; strain ATCC 33591
  PIPLC activity: + (strains permitting the production of fluorescence at least twice that of the background noise)
PIPLC; strain ATCC 33592
  PIPLC activity: + (strains permitting the production of fluorescence at least twice that of the background noise)
PIPLC; strain ATCC 33593
  PIPLC activity: + (strains permitting the production of fluorescence at least twice that of the background noise)
PIPLC; strain ATCC 33862
  PIPLC activity: + (strains permitting the production of fluorescence at least twice that of the background noise)
PIPLC; strain ATCC 43300
  PIPLC activity: + (strains permitting the production of fluorescence at least twice that of the background noise)
PIPLC; strain ATCC 43866
  PIPLC activity: + (strains permitting the production of fluorescence at least twice that of the background noise)
PIPLC; strain ATCC 49775
  PIPLC activity: −
PIPLC; strain ATCC 51153
  PIPLC activity: + (strains permitting the production of fluorescence at least twice that of the background noise)
PIPLC; strain ATCC 51740
  PIPLC activity: + (strains permitting the production of fluorescence at least twice that of the background noise)
PIPLC; strain ATCC 700698
  PIPLC activity: + (strains permitting the production of fluorescence at least twice that of the background noise)
PIPLC; strain ATCC 700699
  PIPLC activity: + (strains permitting the production of fluorescence at least twice that of the background noise)
PIPLC; strain ATCC 700788
  PIPLC activity: + (strains permitting the production of fluorescence at least twice that of the background noise)
PIPLC; strain ATCC 700789
  PIPLC activity: + (strains permitting the production of fluorescence at least twice that of the background noise)
PIPLC; strain CCM 6188
  PIPLC activity: + (strains permitting the production of fluorescence at least twice that of the background noise)

## Cc1cc(=O)oc2cc(OP(=O)(O)OC3C(O)C(O)C(O)C(O)C3O)ccc12 (centres unmarked) [4-Methylumbelliferyl myo-inositol-1-phosphate]
PIPLC
  number of strains that display PIPLC activity in the presence of the substrate: 17
PIPLC; strain ATCC 6538
  PIPLC activity: + (strains permitting the production of fluorescence at least twice that of the background noise)
PIPLC; strain ATCC 9144
  PIPLC activity: + (strains permitting the production of fluorescence at least twice that of the background noise)
PIPLC; strain ATCC 12598
  PIPLC activity: + (strains permitting the production of fluorescence at least twice that of the background noise)
PIPLC; strain ATCC 13150
  PIPLC activity: + (strains permitting the production of fluorescence at least twice that of the background noise)
PIPLC; strain ATCC 29213
  PIPLC activity: + (strains permitting the production of fluorescence at least twice that of the background noise)
PIPLC; strain ATCC 33591
  PIPLC activity: + (strains permitting the production of fluorescence at least twice that of the background noise)
PIPLC; strain ATCC 33592
  PIPLC activity: + (strains permitting the production of fluorescence at least twice that of the background noise)
PIPLC; strain ATCC 33593
  PIPLC activity: + (strains permitting the production of fluorescence at least twice that of the background noise)
PIPLC; strain ATCC 33862
  PIPLC activity: + (strains permitting the production of fluorescence at least twice that of the background noise)
PIPLC; strain ATCC 43300
  PIPLC activity: + (strains permitting the production of fluorescence at least twice that of the background noise)
PIPLC; strain ATCC 43866
  PIPLC activity: + (strains permitting the production of fluorescence at least twice that of the background noise)
PIPLC; strain ATCC 49775
  PIPLC activity: −
PIPLC; strain ATCC 51153
  PIPLC activity: + (strains permitting the production of fluorescence at least twice that of the background noise)
PIPLC; strain ATCC 51740
  PIPLC activity: + (strains permitting the production of fluorescence at least twice that of the background noise)
PIPLC; strain ATCC 700698
  PIPLC activity: + (strains permitting the production of fluorescence at least twice that of the background noise)
PIPLC; strain ATCC 700699
  PIPLC activity: + (strains permitting the production of fluorescence at least twice that of the background noise)
PIPLC; strain ATCC 700788
  PIPLC activity: + (strains permitting the production of fluorescence at least twice that of the background noise)
PIPLC; strain ATCC 700789
  PIPLC activity: + (strains permitting the production of fluorescence at least twice that of the background noise)
PIPLC; strain CCM 6188
  PIPLC activity: −

## Cc1cc(=O)oc2cc(OP(=O)([O-])OCC[N+](C)(C)C)ccc12 [4MU-CP, 4-Methylumbelliferyl choline-phosphate]
PC-PLC (lecithinase)
  detection of Staphylococcus aureus by hydrolysis of the fluorogenic PC-PLC substrate (appearance of fluorescence): permits the detection and discrimination of Staphylococcus aureus
